Test results published in BindingDB's records for doi:10.1021/jm1011319 (AstraZeneca, 2011).

Tests used:
[1] = target: T1, Signal transducer and activator of transcription 5A (Homo sapiens, UniProt P42229); assay: Inhibition of Stat5 phosphorylation in human SET2 cells after 1 hr by Western blotting
T1 sequence (P42229 whole entry): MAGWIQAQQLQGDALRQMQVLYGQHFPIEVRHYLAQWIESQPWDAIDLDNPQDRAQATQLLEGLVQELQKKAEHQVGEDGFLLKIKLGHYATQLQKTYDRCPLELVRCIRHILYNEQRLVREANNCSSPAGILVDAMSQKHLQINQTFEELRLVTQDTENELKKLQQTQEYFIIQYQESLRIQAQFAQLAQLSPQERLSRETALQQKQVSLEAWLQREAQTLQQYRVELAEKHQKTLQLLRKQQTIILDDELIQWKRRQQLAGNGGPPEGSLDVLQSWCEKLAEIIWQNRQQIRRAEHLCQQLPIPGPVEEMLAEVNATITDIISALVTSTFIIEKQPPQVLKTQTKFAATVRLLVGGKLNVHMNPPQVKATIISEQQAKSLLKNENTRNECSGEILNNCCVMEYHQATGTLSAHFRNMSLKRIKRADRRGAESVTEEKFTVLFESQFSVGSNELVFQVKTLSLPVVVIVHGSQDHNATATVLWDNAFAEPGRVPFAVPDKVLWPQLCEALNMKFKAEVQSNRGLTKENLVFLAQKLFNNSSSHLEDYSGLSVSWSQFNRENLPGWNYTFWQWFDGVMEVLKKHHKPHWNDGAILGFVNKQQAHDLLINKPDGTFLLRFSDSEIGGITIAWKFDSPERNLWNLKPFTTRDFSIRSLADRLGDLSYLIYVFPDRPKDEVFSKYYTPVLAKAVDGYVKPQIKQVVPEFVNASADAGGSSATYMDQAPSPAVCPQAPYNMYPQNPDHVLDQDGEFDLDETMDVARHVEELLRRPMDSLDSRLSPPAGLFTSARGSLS

[2] = target: T1, Signal transducer and activator of transcription 5A; assay: Inhibition of Stat5 phosphorylation in human HEL cells after 1 hr by Western blotting
[3] = target: T2, Signal transducer and activator of transcription 3 (Homo sapiens, UniProt P40763); assay: Inhibition of Stat3 phosphorylation in human SET2 cells after 1 hr by Western blotting
T2 sequence (P40763 whole entry): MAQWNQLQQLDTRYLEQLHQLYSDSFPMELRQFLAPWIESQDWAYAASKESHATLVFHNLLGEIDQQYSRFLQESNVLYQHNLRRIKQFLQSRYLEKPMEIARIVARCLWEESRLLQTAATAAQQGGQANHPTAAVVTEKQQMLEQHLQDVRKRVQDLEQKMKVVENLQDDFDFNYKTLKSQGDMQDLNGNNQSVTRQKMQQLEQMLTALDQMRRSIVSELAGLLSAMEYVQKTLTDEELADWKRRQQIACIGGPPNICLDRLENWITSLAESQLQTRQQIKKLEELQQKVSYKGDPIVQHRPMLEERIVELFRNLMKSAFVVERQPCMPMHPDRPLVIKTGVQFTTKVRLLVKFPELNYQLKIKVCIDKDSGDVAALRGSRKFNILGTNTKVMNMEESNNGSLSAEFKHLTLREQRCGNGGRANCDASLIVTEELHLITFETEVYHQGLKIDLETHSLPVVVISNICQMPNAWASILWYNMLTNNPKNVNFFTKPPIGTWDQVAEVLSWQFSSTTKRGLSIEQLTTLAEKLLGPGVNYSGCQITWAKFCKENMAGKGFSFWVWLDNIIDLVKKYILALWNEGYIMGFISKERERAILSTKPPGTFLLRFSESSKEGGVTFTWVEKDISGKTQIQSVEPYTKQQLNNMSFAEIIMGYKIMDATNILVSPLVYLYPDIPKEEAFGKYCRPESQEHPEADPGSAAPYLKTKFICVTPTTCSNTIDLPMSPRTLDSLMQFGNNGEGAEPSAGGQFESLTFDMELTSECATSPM

[4] = target: T2, Signal transducer and activator of transcription 3; assay: Inhibition of Stat3 phosphorylation in human HEL cells after 1 hr by Western blotting

- IC50 [1]: 25 nM
- IC50 [2]: 41 nM
- IC50 [3]: 23 nM
- IC50 [4]: 80 nM
Compound: Cc1cc(Nc2nc(N[C@@H](C)c3ncc(F)cn3)ncc2Cl)[nH]n1 [5-Chloro-N2-[(1S)-1-(5-fluoropyrimidin-2-yl)ethyl]-N4-(5-methyl-1H-pyrazol-3-yl)pyrimidine-2,4-diamine]
